Patent publication US20240109918A1, “HETEROCYCLIC COMPOUNDS AND USES THEREOF” (Kumquat Biosciences Inc., priority 2022, published 2024)

Experiments:
KRASG12D = molecular target: T1, KRASG12D (Homo sapiens, UniProt P01116, G12D); test: Bio-Biochem-PPI-HTRF Ras-SOS1 interaction assay (KRAS G12D); type: biochemical; conditions: 5 nM
T1 construct: made in house; host or cells: E. coli BL21 (DE3)
How it was run: (§1)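 HTRF readout (ex 337 nm; em 620 and 665 nm) after ≥~10 min incubation; IC50 fitted from 665/620 ratio. GST-K-Ras wt or G12D plus anti-GST-Eu(K), His-hSOS1 plus anti-6His-XL665; duplicate dilutions, 10 μM top.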

KRASwt = molecular target: T2, KRASwt (Homo sapiens, UniProt P01116); test: Bio-Biochem-PPI-HTRF Ras-SOS1 interaction assay (KRAS wt); type: biochemical; conditions: 5 nM
T2 construct: made in house; host or cells: E. coli BL21 (DE3)
T2 sequence (P01116 1-188 isoform P01116-2): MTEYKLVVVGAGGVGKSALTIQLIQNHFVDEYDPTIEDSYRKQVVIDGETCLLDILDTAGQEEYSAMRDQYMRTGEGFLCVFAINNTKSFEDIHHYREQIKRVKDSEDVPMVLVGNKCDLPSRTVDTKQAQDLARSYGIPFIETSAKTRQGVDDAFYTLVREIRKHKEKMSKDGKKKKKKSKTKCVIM
How it was run: as §1

T1 sequence (P01116 1-188 isoform P01116-2 G12D): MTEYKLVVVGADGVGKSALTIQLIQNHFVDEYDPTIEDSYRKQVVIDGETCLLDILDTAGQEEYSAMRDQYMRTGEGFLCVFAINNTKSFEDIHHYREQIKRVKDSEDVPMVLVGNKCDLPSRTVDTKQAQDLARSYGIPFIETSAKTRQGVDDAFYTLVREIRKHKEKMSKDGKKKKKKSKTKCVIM

Row | SMILES | IC50 (KRASG12D) [µM] | IC50 (KRASwt) [µM]
1 | C[C@H](Oc1nc(N2CCCC3(CN(C(=O)C4CC4(F)F)C3)C2)c2cc(Cl)c(-c3ccc(F)c4sc(N)c(C#N)c34)c(F)c2n1)[C@@H]1CCCN1C (stereo partly drawn) [compound 148, 2-amino-4-(6-chloro-4-(2-(2,2-difluorocyclopropane-1-carbonyl)-2,6-diazaspiro[3.5]nonan-6-yl)-8-fluoro-2-((S)-1-((S)-1-methylpyrrolidin-2-yl)ethoxy)quinazolin-7-yl)-7-fluorobenzo[b]thiophene-3-carbonitrile] | < 5 | < 5
2 | N#Cc1c(N)sc2c(F)ccc(-c3c(Cl)cc4c(N5CCCCC6(CN(C(=O)N7CC(F)C7)C6)C5)nc(OC[C@@]56CCCN5C[C@H](F)C6)nc4c3F)c12 [compound 250, 2-amino-4-(6-chloro-8-fluoro-4-(2-(3-fluoroazetidine-1-carbonyl)-2,6-diazaspiro[3.6]decan-6-yl)-2-(((2R,7aS)-2-fluorotetrahydro-1H-pyrrolizin-7a(5H)-yl)methoxy)quinazolin-7-yl)-7-fluorobenzo[b]thiophene-3-carbonitrile] | < 5 | < 5
3 | Nc1nc2c(-c3c(Cl)cc4c(N5CCNCC56CNC6)nc(OCC56CCCN5C[C@H](F)C6)nc4c3F)ccc(F)c2s1 (stereo partly drawn) [compound 226, 4-(6-chloro-8-fluoro-2-(((2R)-2-fluorotetrahydro-1H-pyrrolizin-7a(5H)-yl)methoxy)-4-(2,5,8-triazaspiro[3.5]nonan-5-yl)quinazolin-7-yl)-7-fluorobenzo[d]thiazol-2-amine] | ≥ 5 | ≥ 5
4 | N#Cc1c(N)sc2c(F)ccc(-c3c(Cl)cc4c(N5CCCC6(CN(C(=O)C(F)F)C6)C5)nc(OC[C@@]56CCCN5C[C@H](F)C6)nc4c3F)c12 [compound 125, 2-amino-4-(6-chloro-4-(2-(2,2-difluoroacetyl)-2,6-diazaspiro[3.5]nonan-6-yl)-8-fluoro-2-(((2R,7aS)-2-fluorotetrahydro-1H-pyrrolizin-7a(5H)-yl)methoxy)quinazolin-7-yl)-7-fluorobenzo[b]thiophene-3-carbonitrile] | < 5 | < 5
5 | Nc1nc2c(-c3c(Cl)cc4c(N5CCOC6(CCNCC6)C5)nc(OCC56CCCN5C[C@H](F)C6)nc4c3F)ccc(F)c2s1 (stereo partly drawn) [compound 129, 4-(6-chloro-8-fluoro-2-(((2R)-2-fluorotetrahydro-1H-pyrrolizin-7a(5H)-yl)methoxy)-4-(1-oxa-4,9-diazaspiro[5.5]undecan-4-yl)quinazolin-7-yl)-7-fluorobenzo[d]thiazol-2-amine] | < 5 | < 5
6 | N#Cc1c(N)sc2c(F)ccc(-c3c(Cl)cc4c(N5CCCCC6(CN(C(=O)C(F)(F)C(F)(F)F)C6)C5)nc(OC[C@@]56CCCN5C[C@H](F)C6)nc4c3F)c12 [compound 202, 2-amino-4-(6-chloro-8-fluoro-2-(((2R,7aS)-2-fluorotetrahydro-1H-pyrrolizin-7a(5H)-yl)methoxy)-4-(2-(2,2,3,3,3-pentafluoropropanoyl)-2,6-diazaspiro[3.6]decan-6-yl)quinazolin-7-yl)-7-fluorobenzo[b]thiophene-3-carbonitrile] | < 5 | < 5
7 | N#Cc1c(N)sc2c(F)ccc(-c3c(Cl)cc4c(N5CCC(F)(F)CC6(CN(C(=O)C78CC(F)(C7)C8)C6)C5)nc(OC[C@@]56CCCN5C[C@H](F)C6)nc4c3F)c12 [compound 229, 2-amino-4-(6-chloro-4-(9,9-difluoro-2-(3-fluorobicyclo[1.1.1]pentane-1-carbonyl)-2,6-diazaspiro[3.6]decan-6-yl)-8-fluoro-2-(((2R,7aS)-2-fluorotetrahydro-1H-pyrrolizin-7a(5H)-yl)methoxy)quinazolin-7-yl)-7-fluorobenzo[b]thiophene-3-carbonitrile] | < 5 | < 5
8 | N#Cc1c(N)sc2c(F)ccc(-c3c(Cl)cc4c(N5CCCCC6(CN(C(=O)N7CC(C(F)F)C7)C6)C5)nc(OC[C@@]56CCCN5C[C@H](F)C6)nc4c3F)c12 [compound 196, 2-amino-4-(6-chloro-4-(2-(3-(difluoromethyl)azetidine-1-carbonyl)-2,6-diazaspiro[3.6]decan-6-yl)-8-fluoro-2-(((2R,7aS)-2-fluorotetrahydro-1H-pyrrolizin-7a(5H)-yl)methoxy)quinazolin-7-yl)-7-fluorobenzo[b]thiophene-3-carbonitrile] | < 5 | < 5
9 | N#Cc1c(N)sc2c(F)ccc(-c3c(Cl)cc4c(N5CCCCC6(CN(C(=O)COC(F)(F)F)C6)C5)nc(OC[C@@]56CCCN5C[C@H](F)C6)nc4c3F)c12 [compound 268, 2-amino-4-(6-chloro-8-fluoro-2-(((2R,7aS)-2-fluorotetrahydro-1H-pyrrolizin-7a(5H)-yl)methoxy)-4-(2-(2-(trifluoromethoxy)acetyl)-2,6-diazaspiro[3.6]decan-6-yl)quinazolin-7-yl)-7-fluorobenzo[b]thiophene-3-carbonitrile] | < 5 | < 5
10 | N#Cc1c(N)sc2c(F)ccc(-c3c(Cl)cc4c(N5CCCCC6(CN(C(=O)[C@]78COC[C@H]7C8(F)F)C6)C5)nc(OC[C@@]56CCCN5C[C@H](F)C6)nc4c3F)c12 [compound 240, 2-amino-4-(6-chloro-4-(2-((1R,5S)-6,6-difluoro-3-oxabicyclo[3.1.0]hexane-1-carbonyl)-2,6-diazaspiro[3.6]decan-6-yl)-8-fluoro-2-(((2R,7aS)-2-fluorotetrahydro-1H-pyrrolizin-7a(5H)-yl)methoxy)quinazolin-7-yl)-7-fluorobenzo[b]thiophene-3-carbonitrile] | < 5 | < 5
11 | N#Cc1c(N)sc2c(F)ccc(-c3c(Cl)cc4c(N5CCCCC6(CN(C(=O)CC7(C#N)CC7)C6)C5)nc(OC[C@@]56CCCN5C[C@H](F)C6)nc4c3F)c12 [compound 280, 2-amino-4-(6-chloro-4-(2-(2-(1-cyanocyclopropyl)acetyl)-2,6-diazaspiro[3.6]decan-6-yl)-8-fluoro-2-(((2R,7aS)-2-fluorotetrahydro-1H-pyrrolizin-7a(5H)-yl)methoxy)quinazolin-7-yl)-7-fluorobenzo[b]thiophene-3-carbonitrile] | < 5 | < 5

Second part, the compound after the results:

Row | IC50 (KRASG12D) [µM] | IC50 (KRASwt) [µM] | SMILES
12 | < 5 | < 5 | N#Cc1c(N)sc2c(F)ccc(-c3c(Cl)cc4c(N5CCOC6(CN(C(=O)c7ccnn7C(F)(F)F)C6)C5)nc(OC[C@@]56CCCN5C[C@H](F)C6)nc4c3F)c12 [compound 265, 2-amino-4-(6-chloro-8-fluoro-2-(((2R,7aS)-2-fluorotetrahydro-1H-pyrrolizin-7a(5H)-yl)methoxy)-4-(2-(1-(trifluoromethyl)-1H-pyrazole-5-carbonyl)-5-oxa-2,8-diazaspiro[3.5]nonan-8-yl)quinazolin-7-yl)-7-fluorobenzo[b]thiophene-3-carbonitrile]
13 | < 5 | < 5 | N#Cc1c(N)sc2c(F)ccc(-c3c(Cl)cc4c(N5CCCCC6(CNC6)C5)nc(OC[C@@]56CCCN5C[C@H](F)C6)nc4c3F)c12 [compound 149, 2-amino-4-(6-chloro-8-fluoro-2-(((2R,7aS)-2-fluorotetrahydro-1H-pyrrolizin-7a(5H)-yl)methoxy)-4-(2,6-diazaspiro[3.6]decan-6-yl)quinazolin-7-yl)-7-fluorobenzo[b]thiophene-3-carbonitrile]
14 | < 5 | < 5 | N#Cc1c(N)sc2c(F)ccc(-c3c(Cl)cc4c(N5CCCCC6(CN(C(=O)C(C7CC7)N7CCOCC7)C6)C5)nc(OC[C@@]56CCCN5C[C@H](F)C6)nc4c3F)c12 (stereo partly drawn) [compound 223, 2-amino-4-(6-chloro-4-(2-(2-cyclopropyl-2-morpholinoacetyl)-2,6-diazaspiro[3.6]decan-6-yl)-8-fluoro-2-(((2R,7aS)-2-fluorotetrahydro-1H-pyrrolizin-7a(5H)-yl)methoxy)quinazolin-7-yl)-7-fluorobenzo[b]thiophene-3-carbonitrile]
15 | < 5 | < 5 | CN(C)C/C=C/C(=O)N1CC2(CCN(c3nc(OC[C@@]45CCCN4C[C@H](F)C5)nc4c(F)c(-c5ccc(F)c6sc(N)c(C#N)c56)c(Cl)cc34)C2)C1 [compound 183, 2-amino-4-(6-chloro-4-(2-((E)-4-(dimethylamino)but-2-enoyl)-2,6-diazaspiro[3.4]octan-6-yl)-8-fluoro-2-(((2R,7aS)-2-fluorotetrahydro-1H-pyrrolizin-7a(5H)-yl)methoxy)quinazolin-7-yl)-7-fluorobenzo[b]thiophene-3-carbonitrile]
16 | < 5 | < 5 | N#Cc1c(N)sc2c(F)ccc(-c3c(Cl)cc4c(N5CCCCC6(CN(C(=O)C7CCC7C#N)C6)C5)nc(OC[C@@]56CCCN5C[C@H](F)C6)nc4c3F)c12 (stereo partly drawn) [compound 345, 2-amino-4-(6-chloro-4-(2-(2-cyanocyclobutane-1-carbonyl)-2,6-diazaspiro[3.6]decan-6-yl)-8-fluoro-2-(((2R,7aS)-2-fluorotetrahydro-1H-pyrrolizin-7a(5H)-yl)methoxy)quinazolin-7-yl)-7-fluorobenzo[b]thiophene-3-carbonitrile]
17 | < 5 | < 5 | N#Cc1c(N)sc2c(F)ccc(-c3c(Cl)cc4c(N5CCCCC6(CN(C(=O)C7(C(F)(F)F)CC7)C6)C5)nc(OC[C@@]56CCCN5C[C@H](F)C6)nc4c3F)c12 [compound 244, 2-amino-4-(6-chloro-8-fluoro-2-(((2R,7aS)-2-fluorotetrahydro-1H-pyrrolizin-7a(5H)-yl)methoxy)-4-(2-(1-(trifluoromethyl)cyclopropane-1-carbonyl)-2,6-diazaspiro[3.6]decan-6-yl)quinazolin-7-yl)-7-fluorobenzo[b] thiophene-3-carbonitrile]
